In patent US20260116920A1, “HUMAN TRANSFERRIN RECEPTOR BINDING PEPTIDE” (PEPTIDREAM INC., priority 2021, published 2026):
Starred links: 1 amine or outer side, 2 acyl side, 3 side chain; linkers in the order of their positions; H or OH if unused. Positions of bridges follow the written chain, without caps; N, C: chain ends. Non-standard residues stand in square brackets, D forms with d. Residues, ends and D or L forms follow the SMILES beside them. *: point of attachment. X3 = CN([C@@H](Cc1cccc(C(=O)[*:3])c1)C(=O)[*:2])[*:1]; NMePhe(4-COOH) = CN[C@@H](Cc1ccc(C(=O)O)cc1)C(=O)O; X1 = O=C([C@H](Cc1cccc(C(=O)[*:3])c1)N[*:1])[*:2]; NMePhe(3-Cl) = CN[C@@H](Cc1cccc(Cl)c1)C(=O)O; NMeY = CN[C@@H](Cc1ccc(O)cc1)C(=O)O; NH(CH2CH2O)4Me = COCCOCCOCCOCCN*; PEG4 = NCCOCCOCCOCCOCCC(=O)O; Carboxymethyl = O=C(O)C*

Target: T1, human transferrin receptor (hTfR) (Homo sapiens, UniProt P02786)
T1 construct: made in house
T1 sequence (P02786 89-760 limits assumed): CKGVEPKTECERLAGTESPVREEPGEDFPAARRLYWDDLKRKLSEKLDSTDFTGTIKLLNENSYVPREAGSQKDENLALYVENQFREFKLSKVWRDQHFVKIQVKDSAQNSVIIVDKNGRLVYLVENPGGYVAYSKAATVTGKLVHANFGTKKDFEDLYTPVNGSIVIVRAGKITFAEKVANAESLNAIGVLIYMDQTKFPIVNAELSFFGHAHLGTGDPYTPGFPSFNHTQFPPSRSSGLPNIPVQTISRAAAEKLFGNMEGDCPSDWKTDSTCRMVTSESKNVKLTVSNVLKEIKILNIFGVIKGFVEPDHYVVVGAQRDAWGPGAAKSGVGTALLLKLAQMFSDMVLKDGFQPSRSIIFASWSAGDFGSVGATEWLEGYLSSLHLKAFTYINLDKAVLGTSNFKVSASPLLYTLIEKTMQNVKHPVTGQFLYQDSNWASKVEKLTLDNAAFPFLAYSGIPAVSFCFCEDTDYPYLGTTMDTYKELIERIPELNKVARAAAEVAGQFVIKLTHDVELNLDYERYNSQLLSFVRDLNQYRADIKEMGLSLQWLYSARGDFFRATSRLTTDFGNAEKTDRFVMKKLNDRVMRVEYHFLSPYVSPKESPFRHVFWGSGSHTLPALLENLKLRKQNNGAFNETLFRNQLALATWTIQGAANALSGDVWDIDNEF
Test: Evaluation of molecular interaction between transferrin receptor (hTfR) and peptide using surface plasmon resonance (SPR)
Format: binding
Details: surface plasmon resonance, binding to hTfR; KD class symbol; read-out: SPR (KD value)
Summary of the method: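 Binding kinetics of peptides to immobilized recombinant human TfR dimer were measured by SPR at 5–100 nM in a single-cycle format, with KD obtained from curve fitting.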

SMILES	Kd
CC[C@H](C)[C@@H]1NC(=O)[C@H](Cc2ccc(OCC(=O)O)cc2)NC(=O)[C@H](Cc2ccc(O)cc2)NC(=O)[C@H](CC(N)=O)NC(=O)[C@H](Cc2c[nH]c3ccccc23)NC(=O)[C@H](C(C)C)NC(=O)[C@H](Cc2cccc(Cl)c2)N(C)C(=O)[C@H](C(C)C)NC(=O)[C@H](C)NC(=O)CSC[C@@H](C(=O)NCCOCCOCCOCCOCCC(N)=O)NC(=O)[C@H](Cc2ccc(O)cc2)N(C)C(=O)[C@H](Cc2ccccc2)NC(=O)[C@H](CCCCN(C)C)NC(=O)[C@H](CCC(=O)NCCOCCOCCOCCOC)NC(=O)[C@H]([C@@H](C)CC)NC1=O [compound 122]	1 to 100 nM
CC[C@H](C)[C@@H]1NC(=O)[C@H](Cc2ccc(OCC(=O)O)cc2)NC(=O)[C@H](Cc2ccc(O)cc2)NC(=O)[C@H](CC(N)=O)NC(=O)[C@H](Cc2c[nH]c3ccccc23)NC(=O)[C@H](C(C)C)NC(=O)[C@H](Cc2cccc(Cl)c2)N(C)C(=O)[C@H](C(C)C)NC(=O)[C@H](C)NC(=O)CSC[C@@H](C(=O)NCCOCCOCCOCCOCCC(N)=O)NC(=O)[C@H](Cc2ccc(O)cc2)N(C)C(=O)[C@H](Cc2ccccc2)NC(=O)[C@H](CCC(N)=O)NC(=O)[C@H](CCC(=O)NCCOCCOCCOCCOC)NC(=O)[C@H]([C@@H](C)CC)NC1=O [compound 123] ({CH2CO}-AV[NMePhe(3-Cl)]VWNYY(Carboxymethyl)IIE(NH(CH2CH2O)4Me)QF[NMeY]C[PEG4]-NH2; thioether N-15)	1 to 100 nM
CC[C@H](C)[C@@H]1NC(=O)[C@H](Cc2ccc(OCC(=O)O)cc2)NC(=O)[C@H](Cc2ccc(O)cc2)NC(=O)[C@H](CC(N)=O)NC(=O)[C@H](Cc2c[nH]c3ccccc23)NC(=O)[C@H](C(C)C)NC(=O)[C@H](Cc2cccc(Cl)c2)N(C)C(=O)[C@H](C(C)C)NC(=O)[C@H](C)NC(=O)CSC[C@@H](C(=O)NCC(=O)N[C@H](CO)C(=O)N[C@H](CO)C(=O)N[C@H](CO)C(=O)N[C@H](CO)C(=O)N[C@H](CO)C(N)=O)NC(=O)[C@H](Cc2ccc(O)cc2)N(C)C(=O)[C@H](CCC(=O)NCCOCCOCCOCCOC)NC(=O)[C@H](CCCNC(=N)N)NC(=O)[C@H](CCC(=O)NCCOCCOCCOCCOC)NC(=O)[C@H]([C@@H](C)CC)NC1=O [compound 125]	1 to 100 nM
CC[C@H](C)[C@@H]1NC(=O)[C@H](Cc2ccc(OCC(=O)O)cc2)NC(=O)[C@H](Cc2ccc(O)cc2)NC(=O)[C@H](CC(N)=O)NC(=O)[C@H](Cc2c[nH]c3ccccc23)NC(=O)[C@H](C(C)C)NC(=O)[C@H](Cc2cccc(Cl)c2)N(C)C(=O)[C@H](C(C)C)NC(=O)[C@H](C)NC(=O)CSC[C@@H](C(=O)NCCOCCOCCOCCOCCC(N)=O)NC(=O)[C@H](Cc2ccc(C(=O)NCCOCCOCCOCCOC)cc2)N(C)C(=O)[C@H](Cc2cccc(C(=O)NCCOCCOCCOCCOC)c2)NC(=O)[C@H](CCCNC(=N)N)NC(=O)[C@H](CCC(N)=O)NC(=O)[C@H]([C@@H](C)CC)NC1=O [compound 127] ({CH2CO}-AV[NMePhe(3-Cl)]VWNYY(Carboxymethyl)IIQR[X1](NH(CH2CH2O)4Me)[NMePhe(4-COOH)](NH(CH2CH2O)4Me)C[PEG4]-NH2; thioether N-15)	1 to 100 nM
CC[C@H](C)[C@@H]1NC(=O)[C@H](Cc2ccc(OCC(=O)O)cc2)NC(=O)[C@H](Cc2ccc(O)cc2)NC(=O)[C@H](CC(N)=O)NC(=O)[C@H](Cc2c[nH]c3ncccc23)NC(=O)[C@H](C(C)C)NC(=O)[C@H](Cc2cccc(Cl)c2)N(C)C(=O)[C@H](C(C)C)NC(=O)[C@H](C)NC(=O)CSC[C@@H](C(=O)NCCOCCOCCOCCOCCC(N)=O)NC(=O)[C@H](Cc2ccc(O)cc2)N(C)C(=O)[C@H](Cc2cccc(C(=O)NCCOCCOCCOCCOC)c2)NC(=O)[C@H](CCCNC(=N)N)NC(=O)[C@H](CCC(=O)NCCOCCOCCOCCOC)NC(=O)[C@H]([C@@H](C)CC)NC1=O [compound 130]	1 to 100 nM
CC[C@H](C)[C@@H]1NC(=O)[C@H](Cc2ccc(OCC(=O)O)cc2)NC(=O)[C@H](Cc2ccc(O)cc2)NC(=O)[C@H](CC(N)=O)NC(=O)[C@H](Cc2c[nH]c3ncccc23)NC(=O)[C@H](C(C)C)NC(=O)[C@H](Cc2cccc(Cl)c2)N(C)C(=O)[C@H](C(C)C)NC(=O)[C@H](C)NC(=O)CSC[C@@H](C(=O)NCCOCCOCCOCCOCCC(N)=O)NC(=O)[C@H](Cc2ccc(C(=O)NCCOCCOCCOCCOC)cc2)N(C)C(=O)[C@H](Cc2cccc(C(=O)NCCOCCOCCOCCOC)c2)NC(=O)[C@H](CCCNC(=N)N)NC(=O)[C@H](CCC(N)=O)NC(=O)[C@H]([C@@H](C)CC)NC1=O [compound 131]	1 to 100 nM
CC[C@H](C)[C@@H]1NC(=O)[C@H](Cc2ccc(OCC(=O)O)cc2)NC(=O)[C@H](Cc2ccc(O)cc2)NC(=O)[C@H](CC(N)=O)NC(=O)[C@H](Cc2c[nH]c3ncccc23)NC(=O)[C@H](C(C)C)NC(=O)[C@H](Cc2cccc(Cl)c2)N(C)C(=O)[C@H](C(C)C)NC(=O)[C@H](C)NC(=O)CSC[C@@H](C(=O)NCCOCCOCCOCCOCCC(N)=O)NC(=O)[C@H](Cc2cccc(C(=O)NCCOCCOCCOCCOC)c2)N(C)C(=O)[C@H](Cc2cccc(C(=O)NCCOCCOCCOCCOC)c2)NC(=O)[C@H](CCCNC(=N)N)NC(=O)[C@H](CCC(N)=O)NC(=O)[C@H]([C@@H](C)CC)NC1=O [compound 132]	1 to 100 nM
CC[C@H](C)[C@@H]1NC(=O)[C@H](Cc2ccc(OCC(=O)O)cc2)NC(=O)[C@H](Cc2ccc(O)cc2)NC(=O)[C@H](CC(N)=O)NC(=O)[C@H](Cc2c[nH]c3ncccc23)NC(=O)[C@H](C(C)C)NC(=O)[C@H](Cc2cccc(Cl)c2)N(C)C(=O)[C@H](C(C)C)NC(=O)[C@H](C)NC(=O)CSC[C@@H](C(=O)NCCOCCOCCOCCOCCC(N)=O)NC(=O)[C@H](Cc2ccc(O)cc2)N(C)C(=O)[C@H](Cc2ccccc2)NC(=O)[C@H](CCCNC(=N)N)NC(=O)[C@H](CCC(=O)NCCOCCOCCOCCOC)NC(=O)[C@H]([C@@H](C)CC)NC1=O [compound 133]	1 to 100 nM
CC[C@H](C)[C@@H]1NC(=O)[C@H](Cc2ccc(OCC(=O)O)cc2)NC(=O)[C@H](Cc2ccc(O)cc2)NC(=O)[C@H](CC(N)=O)NC(=O)[C@H](Cc2cn(CC(=O)O)c3ccccc23)NC(=O)[C@H](C(C)C)NC(=O)[C@H](Cc2cccc(Cl)c2)N(C)C(=O)[C@H](C(C)C)NC(=O)[C@H](C)NC(=O)CSC[C@@H](C(=O)NCCOCCOCCOCCOCCC(N)=O)NC(=O)[C@H](Cc2ccc(O)cc2)N(C)C(=O)[C@H](Cc2ccncc2)NC(=O)[C@H](CCCNC(=N)N)NC(=O)[C@H](CCC(N)=O)NC(=O)[C@H]([C@@H](C)CC)NC1=O [compound 134]	1 to 100 nM
CC[C@H](C)[C@@H]1NC(=O)[C@H](Cc2ccc(OCC(=O)O)cc2)NC(=O)[C@H](Cc2ccc(O)cc2)NC(=O)[C@H](CC(N)=O)NC(=O)[C@H](Cc2cn(CC(=O)O)c3ccccc23)NC(=O)[C@H](C(C)C)NC(=O)[C@H](Cc2cccc(Cl)c2)N(C)C(=O)[C@H](C(C)C)NC(=O)[C@H](C)NC(=O)CSC[C@@H](C(=O)NCCOCCOCCOCCOCCC(N)=O)NC(=O)[C@H](Cc2ccc(O)cc2)N(C)C(=O)[C@H](Cc2ccncc2)NC(=O)[C@H](CCCCN2CCOCC2)NC(=O)[C@H](CCC(N)=O)NC(=O)[C@H]([C@@H](C)CC)NC1=O [compound 135]	1 to 100 nM

Other lines, results leading:

Kd	SMILES
1 to 100 nM	CC[C@H](C)[C@@H]1NC(=O)[C@H](Cc2ccc(OCC(=O)O)cc2)NC(=O)[C@H](Cc2ccc(O)cc2)NC(=O)[C@H](CC(N)=O)NC(=O)[C@H](Cc2c[nH]c3ccccc23)NC(=O)[C@H](C(C)C)NC(=O)[C@H](Cc2cccc(Cl)c2)N(C)C(=O)[C@H](C(C)C)NC(=O)[C@H](C)NC(=O)CSC[C@@H](C(=O)NCCOCCOCCOCCOCCC(N)=O)NC(=O)[C@H](Cc2ccc(O)cc2)N(C)C(=O)[C@H](CCC(=O)NCCOCCOCCOCCOC)NC(=O)[C@H](CCCNC(=N)N)NC(=O)[C@H](CCC(=O)NCCOCCOCCOCCOC)NC(=O)[C@H]([C@@H](C)CC)NC1=O [compound 124] ({CH2CO}-AV[NMePhe(3-Cl)]VWNYY(Carboxymethyl)IIE(NH(CH2CH2O)4Me)RE(NH(CH2CH2O)4Me)[NMeY]C[PEG4]-NH2; thioether N-15)
1 to 100 nM	CC[C@H](C)[C@@H]1NC(=O)[C@H](Cc2ccc(OCC(=O)O)cc2)NC(=O)[C@H](Cc2ccc(O)cc2)NC(=O)[C@H](CC(N)=O)NC(=O)[C@H](Cc2c[nH]c3ccccc23)NC(=O)[C@H](C(C)C)NC(=O)[C@H](Cc2cccc(Cl)c2)N(C)C(=O)[C@H](C(C)C)NC(=O)[C@H](C)NC(=O)CSC[C@@H](C(=O)NCCOCCOCCOCCOCCC(N)=O)NC(=O)[C@H](Cc2ccc(O)cc2)N(C)C(=O)[C@H](Cc2cccc(C(=O)NCCOCCOCCOCCOC)c2)NC(=O)[C@H](CCCNC(=N)N)NC(=O)[C@H](CCC(=O)NCCOCCOCCOCCOC)NC(=O)[C@H]([C@@H](C)CC)NC1=O [compound 126]
1 to 100 nM	CC[C@H](C)[C@@H]1NC(=O)[C@H](Cc2ccc(OCC(=O)O)cc2)NC(=O)[C@H](Cc2ccc(O)cc2)NC(=O)[C@H](CC(N)=O)NC(=O)[C@H](Cc2c[nH]c3ccccc23)NC(=O)[C@H](C(C)C)NC(=O)[C@H](Cc2cccc(Cl)c2)N(C)C(=O)[C@H](C(C)C)NC(=O)[C@H](C)NC(=O)CSC[C@@H](C(=O)NCCOCCOCCOCCOCCC(N)=O)NC(=O)[C@H](Cc2cccc(C(=O)NCCOCCOCCOCCOC)c2)N(C)C(=O)[C@H](Cc2cccc(C(=O)NCCOCCOCCOCCOC)c2)NC(=O)[C@H](CCCNC(=N)N)NC(=O)[C@H](CCC(N)=O)NC(=O)[C@H]([C@@H](C)CC)NC1=O [compound 128] ({CH2CO}-AV[NMePhe(3-Cl)]VWNYY(Carboxymethyl)IIQR[X1](NH(CH2CH2O)4Me)[X3](NH(CH2CH2O)4Me)C[PEG4]-NH2; thioether N-15)
1 to 100 nM	CC[C@H](C)[C@@H]1NC(=O)[C@H](Cc2ccc(OCC(=O)O)cc2)NC(=O)[C@H](Cc2ccc(O)cc2)NC(=O)[C@H](CC(N)=O)NC(=O)[C@H](Cc2c[nH]c3ccccc23)NC(=O)[C@H](C(C)C)NC(=O)[C@H](Cc2cccc(Cl)c2)N(C)C(=O)[C@H](C(C)C)NC(=O)[C@H](C)NC(=O)CSC[C@@H](C(=O)NCC(=O)N[C@H](CO)C(=O)N[C@H](CO)C(=O)N[C@H](CO)C(=O)N[C@H](CO)C(=O)N[C@H](CO)C(N)=O)NC(=O)[C@H](Cc2cccc(C(=O)NCCOCCOCCOCCOC)c2)N(C)C(=O)[C@H](Cc2cccc(C(=O)NCCOCCOCCOCCOC)c2)NC(=O)[C@H](CCCNC(=N)N)NC(=O)[C@H](CCC(N)=O)NC(=O)[C@H]([C@@H](C)CC)NC1=O [compound 129]
